{"source": "patent US9163032B2", "about": "“Esters of DCPLA and methods of treatment using the same” (Blanchette Rockefeller Neurosciences Institute, priority 2011, dated 2015)", "key": {"Wistar rats": {"test_system": "Wistar rats", "experiment": "Water maze spatial learning and memory task", "format": "in vivo, rat", "conditions": "for water maze learning performance (escape latency) vs control: 8 doses, rats", "protocol": "Water maze spatial learning and memory task (2 training trials/day for 4 days) was used to evaluate effects of oral DCPLA-ME on learning and memory in rats. A visible platform test was conducted after the end of the experiments to evaluate whether the treatment might result in an altered sensorimotor activity and escape motivation.\nMale adult Wistar rats (200-250 g) were housed in a temperature-controlled (20-24° C.) room for a week, allowed free access to food and water, and kept on a 12-h light/dark cycle. Rats were anesthetized with sodium pentobarbital (60 mg/kg i.p) and placed in a stereotactic apparatus (Kopf Instruments, Tujunga, Calif.). The core temperature of rats was monitored and kept constant (38.0±0.5° C.) with warming light and pad. Two stainless steel guide cannulas were placed with the tips positioned at the coordinates (anterior-posterior, 0.5 mm; lateral, 1.5 mm; horizontal, 3.2 mm), under aseptic conditions. At the end of surgery and under appropriate anesthesia, rats received (s.c.) banamine (1 mg/kg) and ketoprofen (5 mg/kg) in lactate/Ringer's solution. A 7-day recovery period was allowed before any further experimentation.\nOn the first day of experiments, all rats were randomly assigned to different groups and swam for 2 min in a 1.5-(diameter)×0.6-m (depth) pool (22±1° C.). On the following day, rats were trained in a two-trial per day task for four consecutive days. Each training trial lasted for up to 2 min, during which rats learned to escape from water by finding a hidden platform that was placed at a fixed location and submerged 1 cm below the water surface. The navigation of the rats was tracked by a video camera. The escape latency and the route of rats' swimming across the pool to the platform were recorded. The quadrant test (1 min) was performed after removing the platform, 24 hr after the last training trial. […]\nData were analyzed using a target quadrant ratio (dividing the target quadrant distance by the average of the non-target quadrant values during the probe test; FIG. 14D)."}, "[1]": {"test_system": "Phosphatidylserine (C2) Binding Site", "experiment": "3H-DCPLA-ME binding to rat brain slices with C1 and C2 competitors (film-autoradiography)", "protocol": "To determine the binding site of DCPLA-ME, ^3H-DCPLA-ME was incubated with rat brain slices in the absence and presence of known C1 and C2 competitors. More specifically, rat brain sections were fixed with formaldehyde, sliced, and incubated with (1)^3H-DCPLA-ME alone; (2)^3H-DCPLA-ME with DCPLA; (3)^3H-DCPLA-ME with Phorbol ester; or (4)^3H-DCPLA-ME and Bryostatin 1. After incubation, the slices were washed with a buffer made of 130 mM NaCl, 5 mM MgCl, 5 mM KCl, 1 mM EGTA, and 0.1% bovine serum albumin in 10 mM HEPES-NaOH, pH 7.4, dried, and analyzed with film-autoradiography."}}, "data": [{"smiles": "CCCCCC1CC1CC1CC1CCCCCCCC(=O)OC", "note": "(stereo not drawn) [DCPLA-ME, DCPLA methyl ester]", "values": [{"measurement": "water maze learning performance (escape latency) vs control", "setting": "Wistar rats; 5.3 mg/kg intragastric", "value": "did not reach a significant level"}, {"measurement": "water maze learning performance (escape latency) vs control", "setting": "Wistar rats; 16.0 mg/kg intragastric", "value": "improved learning performance"}, {"measurement": "memory retention, target quadrant ratio vs control", "setting": "Wistar rats; 16.0 mg/kg intragastric, probe test 24 hr after last trial", "value": "significant difference"}, {"measurement": "binding site", "setting": "[1]", "value": "phosphatidylserine (C2) site"}, {"measurement": "3H-DCPLA-ME binding, 30 nM competitor", "setting": "[1]; 30 nM competitor, rat brain slices", "value": 64, "unit": "%"}, {"measurement": "3H-DCPLA-ME binding, 1 μM competitor", "setting": "[1]; 1 μM competitor, rat brain slices", "value": 37, "unit": "%"}]}]}
